For six compounds, MIC and solubility in water results are on record in US20090239749A1, “Biocidal compositions” (priority 2006, published 2009).

Values after ≈ are worked out from the molar mass of the structure shown.

As usually defined, the MIC is the lowest concentration found to suppress growth.

One data set has as its system Candida albicans (CA). Kind of data set: Minimum Inhibitory Concentration (MIC) test in YEME media, 96 well plate. Type of data set: cell-based. As for the experimental part: These materials produced according to Examples 4-6 were examined for their biocidal efficacy by following a standardised Minimum Inhibitory Concentration (MIC) test. The test consisted of known number of cells of a strain of Candida albicans (CA) in YEME (yeast extract malt extract media), inoculating concentrations of the active material and blanks contained in a 96 well plate. The plates were incubated at 37° C. overnight, and then examined with a UV plate reader at a wavelength of 550 nm.
Equivalent experiments were also conducted to determine the MIC for the biocide active dissolved in a water miscible solvent. In these cases the “blank” reference material was simply a sample of the solvent containing no active compound.
All experiments were repeated 4 times.
All experiments were conducted in YEME media against a CA culture.

For data set [1] the following is noted: cited from earlier work.

For `CC(=O)N1CCN(c2ccc(OCC3COC(Cn4ccnc4)(c4ccc(Cl)cc4Cl)O3)cc2)CC1` (stereo not shown) [Ketoconazole, acetyl-dichlorophenyl-imidazole], inhibition of growth against Candida albicans (CA) (ketoconazole, initial concentration 0.15 mg/ml active, incubated overnight 37° C.) (MIC) required 65 µg/mL (≈ 122 µM).

Regarding `CC1(C)[C@H](C(=O)O[C@H](C#N)c2cccc(Oc3ccccc3)c2)[C@@H]1/C=C(\Cl)C(F)(F)F` (racemic) [λ-cyhalothrin], the solubility in water in data set [1] is 0.005 µg/mL (≈ 0.0111 µM).

Turning to `Oc1cc(Cl)ccc1Oc1ccc(Cl)cc1Cl` [Triclosan, 5-chloro-2-(2,4-dichlorophenoxy)-phenol], the solubility in water in data set [1] was 17 µg/mL (≈ 58.7 µM).

As to `CCCC1COC(Cn2cncn2)(c2ccc(Cl)cc2Cl)O1` (stereo not shown) [Propiconazole, 1-(2-(2,4-dichlorophenyl)-4-propyl-1-1,3-dioxolan-2-ylmethyl)-1H-1,2,4-tri azole], the solubility in water result in data set [1] is listed as “around 100 mg/L”. In the data set with Candida albicans (CA) (dissolved in a water/propylene glycol cosolvent mixture), the MIC is 91.6 µg/mL (≈ 268 µM).

As to `N#Cc1c(Cl)c(Cl)c(Cl)c(C#N)c1Cl` [Chlorothalonil, 2,4,5,6-tetrachloroisophthalonitrile], the solubility in water in data set [1] was roughly 0.6 µg/mL (≈ 2.26 µM).

As for `CO/C=C(/C(=O)OC)c1ccccc1Oc1cc(Oc2ccccc2C#N)ncn1` [Azoxystrobin, methyl(E)-2-{2-[6-(2-cyanophenoxy)pyrimidin-4-yloxy]phenyl}-3-methoxyacrylate], in data set [1], the solubility in water is roughly 6 µg/mL (≈ 14.9 µM).
